Measured values as given in article PMC7195589 (Journal of Ginseng Research, 2019).

target: muscle-type creatine kinase (CK-MM) (Homo sapiens, UniProt P06732); experiment: BLI direct binding response at […]
Sequence (P06732 whole entry): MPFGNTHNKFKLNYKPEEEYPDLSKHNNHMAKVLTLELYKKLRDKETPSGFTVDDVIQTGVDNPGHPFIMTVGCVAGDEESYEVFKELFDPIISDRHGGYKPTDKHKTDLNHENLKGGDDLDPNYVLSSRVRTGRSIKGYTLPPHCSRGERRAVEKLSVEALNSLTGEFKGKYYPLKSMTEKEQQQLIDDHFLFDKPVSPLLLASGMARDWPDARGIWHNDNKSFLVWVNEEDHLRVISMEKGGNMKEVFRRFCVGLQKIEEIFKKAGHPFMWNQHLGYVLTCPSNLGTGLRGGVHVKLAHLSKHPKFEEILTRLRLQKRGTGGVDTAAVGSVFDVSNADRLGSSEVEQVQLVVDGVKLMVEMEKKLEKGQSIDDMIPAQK

With CC(C)=CCC[C@](C)(O)[C@H]1CC[C@]2(C)[C@@H]1[C@H](O)C[C@@H]1[C@@]3(C)CC[C@H](O)C(C)(C)[C@@H]3[C@@H](O)C[C@]12C [PPT, 20(S)-protopanaxatriol] as the molecule, how does the “BLI direct binding response at 300 uM (no KD)” value read?
Its value is “F1, Rh2, K, and their aglycones (PPT and PPD) displayed gradually direct interaction with CK-MM”.

For CC(C)=CCC[C@](C)(O[C@@H]1O[C@H](CO)[C@@H](O)[C@H](O)[C@H]1O)[C@H]1CC[C@]2(C)[C@@H]1[C@H](O)C[C@@H]1[C@@]3(C)CC[C@H](O)C(C)(C)[C@@H]3CC[C@]12C [GK, ginsenoside compound K], which “BLI direct binding response at 300 uM (no KD)” value is on record?
Its value is “F1, Rh2, K, and their aglycones (PPT and PPD) displayed gradually direct interaction with CK-MM”.

Which “BLI direct binding response at 300 uM (no KD)” value does the source give for CC(C)=CCC[C@](C)(O)[C@H]1CC[C@]2(C)[C@@H]1[C@H](O)C[C@@H]1[C@@]3(C)CC[C@H](O[C@@H]4O[C@H](CO)[C@@H](O)[C@H](O)[C@H]4O)C(C)(C)[C@@H]3CC[C@]12C [Rh2, ginsenoside Rh2] here?
Its value is “F1, Rh2, K, and their aglycones (PPT and PPD) displayed gradually direct interaction with CK-MM”.
